Assay results published in patent US20200281209A1, “STABILIZED EMULSIONS” (Suncor Energy Inc., priority 2016, published 2020).

Experiment: Emulsification test after simulated long term storage at 50° C. (Testing Example 6)
Assay type: physicochemical
Settings: for re-emulsification compared with composition with no biocide: after storage at 50° C. for 32 and 70 days
Experimental: Where required, solutions were preheated to aid in dissolution of surfactants. Once the various components had been dissolved into solution, final oil-in-water emulsion composition were blended using high shear mixing (Polytron, Brinkmann Instruments). For solutions containing monomeric surfactants, solutions were subjected to high shear mixing for 5 minutes, while solutions containing polymeric surfactants were subjected to high shear mixing for 15 minutes. Once blending was completed, samples were assessed for quality of emulsification and then placed at 50° C. for up to 70 days, with additional assessments occurring at different time points throughout the storage period. Quality of emulsification was assessed using the method described below. Samples were placed at 50° C. to accelerate storage stability testing, as 4 weeks at 50° C. is representative of 2 years at ambient temperature (CIPAC MT 46.3). The following method was used to evaluate the tested emulsions. The method was performed using a 100 mL graduated cylinder and a pipette (capable of measuring at least 1 mL). The oil-in-water emulsion compositions evaluated in this example were tested as follows: • 1. If ready-to-use spray oil solutions were under storage conditions (e.g., storage for two weeks at 54° C.), the solution was shaken to allow the contents to re-emulsify. • 2. A graduated cylinder was filled with 100 mL of an oil-in-water emulsion composition, and the amount was adjusted as necessary using a pipette. The test solution was allowed to sit for 15 minutes to permit the emulsion to break and to let the majority of the foam generated in step 1 (FIG. 1A) to disappear before moving to step 3. […] The foam should be allowed to settle before inverting cylinders. Even with inversion of cylinders (vs. shaking), some foaming can occur (FIG. 1(B)). • 3. A stopper was placed on the graduated cylinder and the graduated cylinder was inverted 10 times. It was important to invert and not shake the cylinder to prevent excess foaming. • 4. […] Rating were based on the following scale (1-10). […] Specifically, FIG. 2 is an example of an oil-in-water emulsion composition with a rating of 10 (best) at five minutes after inversion. The solution is a homogeneous, milky emulsion (left) and lacks an oil layer or creaming on the surface (right). […] The solution is a homogeneous, milky emulsion (left), but with creaming and some oil coalescence on surface (right). Finally, FIG. 4 is an example of an oil-in-water emulsion composition with a rating of 1 (worst) at five minutes after inversion. The solution has a cloudy appearance, lacks a homogeneous, milky emulsion (left), and has a layer of large, coalesced oil deposits at the surface of the solution (right). The figures were used in the examples described herein as a reference only.

[1] = Base oil Group III, Alcohol ethoxylate/alkyl glyceride, 70 days of storage (50° C.), 10 = best, 1 = worst

With `O=C(O)c1ccccc1` [Benzoic acid, benzoic acid] the “Emulsion Rating (1-10)” value (Base oil Group I, Alcohol ethoxylate/alkyl glyceride, 70 days of storage (50° C.)) was 6, the “Emulsion Rating (1-10)” value (Base oil Group II, Alcohol ethoxylate/alkyl glyceride, 70 days of storage (50° C.)) was 7 and the “Emulsion Rating (1-10)” value [1] was 7. The “Emulsion Rating (1-10)” value (Base oil Group III, Alkyl polysaccharide, 27 days of storage (50° C.)) was 8, the “Emulsion Rating (1-10)” value (Base oil Group III, Block copolymer, 27 days of storage (50° C.)) was 8 and the “Emulsion Rating (1-10)” value (Base oil Group III, Polyoxyethylene amine quarternary/alkyl glyceride, 27 days of storage (50° C.)) was 4. The “Emulsion Rating (1-10)” value (Base oil Group III, Random polymeric/Block copolymer, 64 days of storage (50° C.)) was 5, the “Emulsion Rating (1-10)” value (Base oil Group IV, Alcohol ethoxylate/alkyl glyceride, 70 days of storage (50° C.)) was 6 and the “re-emulsification compared with composition with no biocide” value was “improved re-emulsification”. The “effect on re-emulsification, single surfactant” value (“effect … single surfactant” for short) (alcohol ethoxylate, amine alkybenzenesulfonate (anionic), polyoxyethylene amine quarternary (cationic) or polyethylene glycol) was “no impact”, the “effect … single surfactant” value (alkyl glyceride, random polymeric, sorbitan monooleate, sorbitan fatty acid ester, or dodecyl phenol) was “negatively affected” and the “effect … single surfactant” value (block copolymer or alkyl polysaccharide surfactant) was “improved re-emulsification”. The “effect on re-emulsification, surfactant pairs” value (shortened to “effect … surfactant pairs”) (dodecyl phenol + alcohol ethoxylate, alcohol ethoxylate + amine alkylbenzenesulfonate (anionic), sorbitan monooleate + polyoxyethylene (20) sorbitan monooleate) was “no impact”, the “re-emulsification compared with compositions without benzoic acid” value (group I, group II, group III, and group IV (poly-alpha-olefins) base oils) was “improved re-emulsification” and the “effect … surfactant pairs” value (polyethylene glycol monostearate + alkyl glyceride, alkyl polysaccharide + alkyl glyceride) was “negatively affected”. For the same compound, the “effect … surfactant pairs” value (random polymeric + block copolymer (64 days), polyoxyethylene amine quarternary + alkyl glyceride (27 days), alcohol ethoxylate + alkyl glyceride (70 days), 50° C.) was “improved re-emulsification”.
For `COC(=O)c1ccc(O)cc1` [Methyl paraben, methyl paraben], the “Emulsion Rating (1-10)” value [1] was 5 and the “re-emulsification compared with composition with no biocide” value was “improved re-emulsification”.
In the case of `CCCOC(=O)c1ccc(O)cc1` [Propyl paraben, propyl paraben], the “Emulsion Rating (1-10)” value [1] was 5 and the “re-emulsification compared with composition with no biocide” value was “improved re-emulsification”.
In the case of `O=C([O-])c1ccccc1.[Na+]` [Sodium benzoate, sodium benzoate], the “Emulsion Rating (1-10)” value [1] was 6 and the “re-emulsification compared with composition with no biocide” value was “improved re-emulsification”.
With `C/C=C/C=C/C(=O)O` [sorbic acid, reference compound] the “re-emulsification compared with composition with no biocide” value was “comparable or worse emulsification quality”.
